“Also recorded” adds a separate entry of the source. Where no end group is shown, it is not given here.
Columns and labels:
[1] = Dynamic light scatter spectroscopy, hydrodynamic radius; assay type: physicochemical; conditions: for Hydrodynamic radius (nm) pH 5.8 / Hydrodynamic radius (nm) pH 7.4: 1.0 μM peptide; for Hydrodynamic radius (nm) pH 5.8: phosphate buffer pH 5.8; for Hydrodynamic radius (nm) pH 7.4: phosphate buffer pH 7.4; for pH-dependent dissociation of peptide particles, in words: acidification of phosphate buffer
Experimental: The hydrodynamic radii of LL-37 and other peptides were monitored by a Zetasizer Nano-S instrument (Malvern Instruments). All measurements were taken with 1 μM of peptide dissolved in phosphate buffer adjusted to the desired pH at 22° C.

TLR4 signaling = test: IL-6 production (ELISA) in BEAS-2B cells induced with LPS; assay type: cell-based, human; conditions: for IL-6 production (%) LPS-depend.: BEAS-2B cells induced with 1.0 μg/ml of LPS, LL-37 100
Experimental: (§1) IL-6 production was quantified by ELISA using the OptEIA™ kit (BD Biosciences). A typical assay used 2×10^4 BEAS-2B cells/well grown for 24 h in flat bottom 96-well plates. Poly(I:C) was added to a final concentration of 0.13 μg/ml. Antimicrobial peptides were added to the cell culture medium to a final concentration of 3 μM unless specified otherwise. All ELISA results shown were performed in triplicate and in at least three independent experiments.
(§2) To better define how residues in LL-37 contribute to function, several variants derived from LL-37 were tested for: 1) repression of TLR4 signaling by LPS, 2) enhancement of TLR3 signaling by poly(I:C), and 3) binding to LL-37. Signaling by TLR3 and TLR4 were monitored using ELISA to detect IL-6 secreted into the medium of BEAS-2B cells.

TLR3 signaling = test: IL-6 production (ELISA) in BEAS-2B cells induced with poly(I:C); assay type: cell-based, human; conditions: for Enhancement of TLR3 signaling / poly(I:C)-induced IL-6, in words: BEAS-2B cells; for IL-6 production (%) poly(I:C)-depend.: BEAS-2B cells induced with 130 ng/ml of poly(I:C), LL-37 100
Experimental: as §1, §2

f-LL37 = biological target: T1, f-LL37 (Homo sapiens, UniProt P49913); test: Fluorescence polarization, interaction of peptides with fluorescein-labeled LL-37; assay type: binding
T1 sequence (P49913 134-170 limits assumed): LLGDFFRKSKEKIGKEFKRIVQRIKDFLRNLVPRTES
Experimental: (§3) Peptide binding to poly(I:C) was analyzed by monitoring fluorescence polarization using the Synergy H1 microplate reader (BioTek). Fluorescein-labeled LL-37 was titrated to a 100 μL solution containing poly(I:C) and phosphate buffers at different pHs. Interactions between LL-37 and other peptides were analyzed using LL-37 labeled at the N-terminus with fluorescein (0.1 μM), and peptides were titrated from 1 nM to 1000 nM in phosphate buffer at pH 7.0. Interaction between poly(I:C) and different peptides was determined by titrating fluorescein-labeled poly(I:C) (0.1 μM) with peptides added to final concentrations of 10 to 500 nM in phosphate buffer at pH 7.4. All polarization assays were performed in triplicate.

[2] = system: Escherichia coli ATCC 25922; test: MIC assay, broth microdilution (CLSI); assay type: cell-based; conditions: E. coli ATCC 25922; peptide: None
Experimental: MIC assays were performed according to protocols for broth microdilution according to the Clinical Laboratory Standards Institute (CLSI, 2015. Methods for Dilution Antimicrobial susceptibility tests for bacterial that grow aerobically; Approved standard—tenth edition).

poly(I:C) = test: Fluorescence polarization, peptide binding to poly(I:C)
Experimental: as §3
LL-37 accompanies dsRNA to endosomes containing TLR3. However, it is unknown whether LL-37 will release the dsRNA in endosomes. Johansson et al. (1998) have previously determined that a neutral pH is required for the activity of LL-37. We seek to determine whether LL-37 binding to dsRNA can be affected by pH.

FPRL-1 receptor = biological target: T2, FPRL-1 receptor (Homo sapiens, UniProt P25090); test: IL-6 production in BEAS-2B cells knocked down with siRNA (FPRL-1, EGFR, control); assay type: cell-based; conditions: for IL-6 production, peptide with poly(I:C), in words: knockdown of either FPRL-1 or EGFR; for IL-6 production, peptide added along with LL-37 and poly(I:C), in words: siRNA to FPRL-1 or nonspecific control
T2 construct: a human lung epithelial cell line that expresses endogenous FPRL-1; endogenous in cells; host or cells: BEAS-2B
T2 sequence (P25090 1-351): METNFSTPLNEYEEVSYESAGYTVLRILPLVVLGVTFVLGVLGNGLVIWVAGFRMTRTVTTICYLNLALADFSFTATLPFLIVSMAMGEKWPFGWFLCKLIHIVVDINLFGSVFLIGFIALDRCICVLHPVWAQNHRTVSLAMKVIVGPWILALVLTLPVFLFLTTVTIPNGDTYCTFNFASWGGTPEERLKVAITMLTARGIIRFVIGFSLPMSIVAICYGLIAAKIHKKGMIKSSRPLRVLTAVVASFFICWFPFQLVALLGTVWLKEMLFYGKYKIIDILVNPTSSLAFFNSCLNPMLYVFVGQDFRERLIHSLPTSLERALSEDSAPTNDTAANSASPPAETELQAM
Experimental: BEAS-2B cells were seeded at 2×10^6 cells per 6-well plate for 6 h prior to transfection with 30 nM of a pool of three siRNAs from Santa Cruz Biotechnology. Transfections were done using Lipofectamine 2000.
Cells were grown on poly-L-lysine (Life Technologies). The level of target mRNA was analyzed using qRT-PCR and normalized to the levels of GAPDH mRNA. The sequences of the primers will be made available upon request. Poly(I:C) was added 48 h after siRNA transfection and IL-6 levels in the culture media were collected 24 h later.
LL-37's enhancement of TLR3 signaling required trafficking of LL-37/poly(:C) to endosomes via the FPRL-1 receptor. Therefore, we examined whether LL-29 used the FPRL-1 receptor to enter cells. siRNA was used to knock down the expression of either FPRL-1, EGFR, or TLR3. […] Co-localization of fLL-37 and rpIC was reduced to less than a third of the control. […] Knockdowns performed with siRNAs to either a nonspecific control or EGFR had no effect on the enhancement of IL-6 production.
Will LL-29 affect the use of the FPRL-1 receptor by the LL-37/poly(I:C) complex? BEAS-2B cells knocked down for FPRL-1 were treated with LL-37 along with additional concentrations of LL-37, Pentamide, LL-29, Peptide A, or LL8-37 (FIG. 6C). Signaling by TLR3 was determined by the amount of IL-6 secreted in the cell culture media. A control siRNA had no effect on WT LL-37/poly(I:C) enhancement of IL-6 production.
LL-37 uses the Formyl peptide receptor-like 1 (FPRL-1) receptor to deliver nucleic acids into endosomes, where activation of the Toll-like receptors that recognize nucleic acids takes place (Singh et al., 2014). We sought to determine whether the LL-37 orthologs from other mammals could also use the FPRL-1 in the human BEAS-2B cells to deliver dsRNA. BEAS-2B cells were treated with poly(I:C) along with the peptides and the peptides from pig, sheep, rabbit, and mouse had reduced ability to use the FPRL-1 to activate IL-6 production.

[3] = system: LL-37 enhancement of TLR3 signaling; test: Antagonism of LL-37/poly(I:C)-enhanced IL-6 production in BEAS-2B cells; assay type: cell-based, human; conditions: peptide added with LL-37/poly(I:C), BEAS-2B cells
Experimental: as §1
We examined whether LL-29 could affect the enhancement of TLR3 signaling by WT LL-37/poly(I:C). An increasing amount of LL-29 along with a constant amount of LL-37/poly(I:C) was used to assess IL-6 production in BEAS-2B cells. […] That is, LL-29 abrogated LL-37's ability to enhance TLR3 signaling. That is, LL-29 is an example of a peptide antagonist of LL-37 function.

Reovirus dsRNA, Reo S4 = test: IL-6 production in BEAS-2B cells in the presence of Reovirus dsRNA Reo S4; assay type: cell-based, human
Experimental: as §1
Herein, we analyzed the LL-37 orthologs from Rhesus monkeys, pig, sheep, guinea pigs, rabbit, as well as mouse (FIG. 14A). All peptides were chemically synthesized and assayed for the induction of inflammatory cytokine IL-6 in the presence of the double-stranded RNA mimic, poly(I:C) or the Reovirus dsRNA, Reo S4 (FIGS. 14B and 14C). […] Importantly, all LL-37 orthologs tested had the ability to reduce IL-6 production in response to LPS (FIG. 14E).

Compound | Hydrodynamic radius (nm) pH 5.8 [1] [nm] | Hydrodynamic radius (nm) pH 7.4 [1] [nm] | pH-dependent dissociation of peptide particles, in words [1] | IL-6 production (%) LPS-depend. (TLR4 signaling) [%] | Enhancement of TLR3 signaling / poly(I:C)-induced IL-6, in words (TLR3 signaling) | IL-6 production (%) poly(I:C)-depend. (TLR3 signaling) [%] | Interaction with fLL-37, in words (f-LL37) | MIC (μg/ml) of antibiotic, no peptide [2] [µg/mL] | Binding to poly(I:C)/dsRNA in fluorescent polarization assay, in words (poly(I:C)) | IL-6 production, peptide added along with LL-37 and poly(I:C), in words (FPRL-1 receptor) | further results
SKEKIGKEFKRIVQRIKDFLR [LL9-29] | 1281 | 446.5 | failed to dissociate | 196 ± 11 | failed to enhance TLR3 signaling | 31 ± 3 | did not | – | – | – | Binding f-LL37: fold change in the fluorescence anisotropy values of f-LL-37 (f-LL37; between 1.0 nM and 1000 nM of added peptide): 2.6 ± 0.2 fold
COc1cccc2c1C(=O)c1c(O)c3c(c(O)c1C2=O)C[C@@](O)(C(=O)CO)C[C@@H]3O[C@H]1C[C@H](N)[C@H](O)[C@H](C)O1 [Doxorubicin, reference compound] | – | – | – | – | – | – | – | 0.5 | – | – | –
LLGNFFRKSKQKIGKQFKRIVQRIKNFLRNLVPRTQS (not fully specified) [Pentamide, five acidic residues in LL-37 replaced with neutral-polar residues, reference compound] | 1990 | 1106 | failed to dissociate | 400 ± 32 | failed to enhance TLR3 signaling | 31 ± 0 | – | – | failed to bind dsRNA | had no effect on IL-6 production unless FPRL-1 expression was reduced | Suppression of TLR4 signaling / LPS-induced IL-6, in words (TLR4 signaling; BEAS-2B cells): failed to suppress TLR4 signaling; IL-6 production, peptide with poly(I:C), in words (FPRL-1 receptor): did not enhance IL-6 production
LLGDFFRKSKEKIGKEFKRIVQRIKDFLRKLVPQPEQ (listed as Homo sapiens) [Peptide A] | 956 | 1990 | reduced for the ability to dissociate under acidic pH conditions | 161 ± 11 | – | 41 ± 6 | retained partial interaction with fLL-37; also recorded: retain partial activity to interact with fLL-37 | – | debilitated for binding RNA | resulted in a reduction in IL-6 levels | Antagonism of LL-37 enhancement of TLR3 signaling (IL-6), in words [3]: to a lesser degree than LL-29; also recorded: can partially antagonize the enhancement of TLR3 signaling
COc1cc(Cc2cnc(N)nc2N)cc(OC)c1OC [Trimethoprim, reference compound] | – | – | – | – | – | – | – | 0.25 | – | – | –
SKEKIGKEFKRIVQRIKDFLRNLVPRTES ((1)..(29) LL8-37; listed as Homo sapiens) | 615 | 825 | – | 239 ± 21 | – | 38 ± 3 | retain partial activity to interact with fLL-37 | – | – | had no effect on IL-6 production unless FPRL-1 expression was reduced | IL-6 production, peptide with poly(I:C), in words (FPRL-1 receptor): did not enhance IL-6 production
GLLRKGGEKIGEKLKKIGQKIKNFFQKLVPQPEQ [mCRAMP, murine ortholog of LL-37, reference compound] | 1106 | 1718 | – | 82 ± 29 | failed to enhance TLR3 signaling; also recorded: unable to enhance IL-6 production | 31 ± 3 | – | – | failed to bind dsRNA | – | Enhancement of IL-6 production / signaling by Reo S4, in words (Reovirus dsRNA, Reo S4): unable to enhance IL-6 production
RL-37: LL-37 ortholog from Rhesus monkey, SEQ ID NO: 20 (RLGNFFRKVKEKIGGGLKKVGQKIKDFLGNLVPRTAS; (1)..(37) Monkey RL-37; listed as Macaca mulatta) [reference compound] | – | – | – | – | more similar to that of the human LL-37 | – | – | – | – | – | –
NC[C@H]1O[C@H](O[C@H]2[C@H](O)[C@@H](O[C@H]3O[C@H](CO)[C@@H](O)[C@H](N)[C@H]3O)[C@H](N)C[C@@H]2N)[C@H](O)[C@@H](O)[C@@H]1O [Kanamycin, reference compound] | – | – | – | – | – | – | – | 4 | – | – | –
